Measurements: patent US12370143B2, “Compound or salt thereof and lipid particles” (FUJIFILM Corporation, priority 2018, dated 2025)

Legend:
[1] = Particle size of nucleic acid lipid particles (Luc2-siRNA); format: physicochemical; settings: compound/DSPC/cholesterol/DMG-PEG2000 50/10/38.5/1.5
Summary of the method: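 Particle size was read by ELS-Z2 light scattering on nucleic acid lipid particles after dialysis against PBS. These were made by micromixing Luc2-siRNA (19.7 μmol/L, pH 4 acetate) with ethanolic lipids (test lipid/DSPC/cholesterol/DMG-PEG2000 50/10/38.5/1.5, 20 mmol/L) at 3:1 water:oil, siRNA/lipid 339 mol/mol.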

[2] = Encapsulation rate of siRNA in nucleic acid lipid particles (Luc2-siRNA); format: physicochemical; settings: compound/DSPC/cholesterol/DMG-PEG2000 50/10/38.5/1.5
Summary of the method: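 Encapsulation rate was calculated as (total − outer-phase siRNA)/total ×100. Total siRNA was quantified spectrophotometrically after lipid-dissolving ethanol precipitation, and unencapsulated siRNA by RiboGreen in TE (ex 485/em 535 nm). The particles were test lipid/DSPC/cholesterol/DMG-PEG2000 at 50/10/38.5/1.5, formed by microfluidic mixing with Luc2-siRNA at pH 4 and dialyzed against PBS.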

[3] = system: DMS273 cells constantly expressing Luc; test: Target reporter protein (Luc) knockdown in cell, reporter protein assay; format: cell-based; settings: Homo sapiens, DMS-273; Luc2-siRNA lipid particles using the compound; siRNA 0.1 to 100 nmol/L; concentration at which Luc expression is knocked down to 50%; read-out: IC50
Summary of the method: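 Nucleic acid lipid particles added at final 0.1 to 100 nmol/L to DMS273 human SCLC cells stably expressing Luc2, 24 hr exposure then 24 hr further culture after medium change. Luc quantified by Steady Glo luminescence after viable cell count; knockdown efficiency calculated and IC50 taken as concentration giving 50% Luc reduction.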

[4] = system: Factor VII (FVII) protein; test: Measurement of Factor VII (FVII) protein in mouse plasma after FVII-siRNA lipid particles; format: in vivo, C57BL6/J mice; settings: 0.1 mg/kg caudal vein, plasma 24 hours after administration, PBS group = 100%
Summary of the method: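 C57BL6/J mice (n=3) received FVII-siRNA nucleic acid lipid particles at 0.1 mg/kg into the tail vein; controls got PBS. Each value is the percentage of the PBS-group FVII level.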

[5] = Particle size of nucleic acid lipid particles (FVII-siRNA); format: physicochemical
Method: The compounds described in Table 2, L-α-distearoylphosphatidylcholine (trade name: COATSOME® MC-8080; NOF corporation), cholesterol (trade name: Choesterol HP; NIPPON FINE CHEMICAL CO., LTD.), and 1,2-dimyristoyl-rac-glycero-3-(methylpolyoxyethylene 2000) (hereinafter, called DMG-PEG2000) (trade name: SUNBRIGHT® GM-020; NOF corporation) were dissolved in ethanol at a molar ratio of 50/10/38.5/1.5 such that the total lipid concentration became 20 mmol/L, thereby obtaining an oil phase.
An aqueous nucleic acid solution obtained by dissolving 5 mg of Luc2-siRNA having the sequence described in Biomacromolecules (2013) 14, p. 3905 in 1 mL of sterile water was diluted with 10 mmol/L acetate buffer having a pH 4 such that the nucleic acid concentration became 19.7 μmol/L, thereby obtaining a water phase. Then, the water phase and the oil phase were mixed together by a micromixer (see JP5288254B) using a syringe pump such that the volume ratio of water phase:oil phase became 3:1 (final ratio of siRNA/lipid=339 (mol/mol)), and the mixed solution was diluted 2× with PBS, thereby obtaining a dispersion liquid of nucleic acid lipid particles. The dispersion liquid was dialyzed (Slide-A-Lyzer G2, MWCO: 10 kD, Thermo Fisher Scientific) using a phosphate buffered saline such that ethanol was removed, thereby obtaining nucleic acid lipid particles.
The particle size of the nucleic acid lipid particles was measured by the same method as that in <Preparation of lipid particles>.
(§1) The Factor VII (FVII) protein was measured according to the method described in Nature Biotechnology (2010) 28, 172-176. C57BL6/J mice were randomly grouped (n=3). A dispersion liquid of nucleic acid lipid particles was prepared by the same method as that in <Preparation of nucleic acid lipid particles>, except that FVII-siRNA having the sequence described in Molecular Therapy (2009) 17, p. 878 was used instead of Luc-siRNA. The dispersion liquid was administered to the caudal vein of the mice at a dosage of 0.1 mg/kg. For comparison, PBS at the same volume was administered to the caudal vein of the mice. Twenty four hours after the administration, blood was collected from the caudal vena cava, thereby obtaining plasma. The amount of FVII protein was quantified using the obtained plasma and a Biophen FVII assay kit (Aniara).

[6] = Nucleic acid encapsulation rate of nucleic acid lipid particles (FVII-siRNA); format: physicochemical
Method: A 3 mol/L aqueous sodium acetate solution (30 μL) and 9 μL of glycogen were added to 60 μL of the lipid particles retaining nucleic acids, and then 1.5 mL of ethanol was added thereto such that only the nucleic acids were precipitated while the lipid was dissolved. Then, the supernatant was removed by centrifugation. After the precipitates were air-dried for 15 minutes or longer, water was added thereto such that the precipitates were redissolved, and the concentration thereof was measured using Nanodrop NF1000 (Thermo Fisher Scientific), thereby quantifying the total nucleic acid concentration.
The nucleic acid concentration was quantified using a Quant-iT RiboGreen RNA Assay Kit (Thermo Fisher Scientific) according to the protocol. First, a 20×TE buffer included in the above kit was diluted with water, thereby obtaining a 1×TE buffer. TE represents Tris/EDTA (ethylenediaminetetraacetic acid). In order to quantify only the nucleic acid in the outer water phase, the dispersion liquid of lipid particles retaining nucleic acids was diluted 10,000× with the 1×TE buffer.
The 10,000× diluted dispersion liquid of lipid particles (100 μL) was put in a 96-well plate, then 100 μL of a RiboGreen reagent (reagent included in the Quanti-iT Ribogreen RNA Assay Kit described above) diluted 2000× with the 1×TE buffer was added to a sample, and fluorescence (excitation wavelength: 485 nm, fluorescence wavelength: 535 nm) was measured using a plate reader Infinit EF200 (TECAN), thereby quantifying the nucleic acid concentration in the outer water phase.
By using the total nucleic acid concentration obtained through the above steps and the quantified nucleic acid concentration in the outer water phase, the nucleic acid encapsulation rate of the nucleic acid lipid particles was calculated according to the following Equation. Nucleic acid encapsulation rate (%)=(total nucleic acid concentration−nucleic acid concentration in outer water phase)/total nucleic acid concentration×100 The results are shown in Table 2.
as §1

Row | Particle size (nm) [1] | Nucleic acid encapsulation rate [2] | IC50 [3] | Particle size (nm) [5] | Nucleic acid encapsulation rate [6] | Compound | Relative amount of FVII protein (%) [4]
1 | 73.7 nm | 75% | 15 nM | 66.6 nm | 75% | CCCCC/C=C\C/C=C\CCCCCCCCC(CCCCCCCC/C=C\C/C=C\CCCCC)OC(=O)OCCN(CCCCC)CCN(C)C [Example 40, 2-((2-(Dimethylamino)ethyl)(pentyl)amino)ethyl((6Z,9Z,28Z,31Z)-heptatriaconta-6,9,28,31-tetraen-19-yl)carbonate] | 3%
2 | 74.5 nm | 78% | 19 nM | 75.3 nm | 87% | CCCCCCCC/C=C\CCCCCCCC(=O)OCCCCCCC(CCCCCCOC(=O)CCCCCCC/C=C\CCCCCCCC)OC(=O)OCCN(CCCCCC)CCN(C)C [Example 43] | 11%
3 | 71.7 nm | 76% | 22 nM | 71.5 nm | 79% | CCCCC/C=C\C/C=C\CCCCCCCC(=O)OCCCCCCC(CCCCCCOC(=O)CCCCCCC/C=C\C/C=C\CCCCC)OC(=O)OCCN(CC)CCN(CC)CC [Example 45, 7-(((2-((2-(Diethylamino)ethyl)(ethyl)amino)ethoxy)carbonyl)oxy)tridecane-1,13-diyl(9Z,9′Z,12Z,12′Z)-bis(octadeca-9,12-dienoate)] | 16%
4 | 71 nm | 80% | 17 nM | 68.4 nm | 84% | CCCCCC/C=C\CCCCCCCC(=O)OCCCCCCC(CCCCCCOC(=O)CCCCCCC/C=C\CCCCCC)OC(=O)OCCN(CC)CCN(CC)CC [Example 46, 7-(((2-((2-(Diethylamino)ethyl)(ethyl)amino)ethoxy)carbonyl)oxy)tridecane-1,13-diyl(9Z,9′Z)-bis(hexadec-9-enoate)] | 18%
5 | 72.3 nm | 74% | 19 nM | 79.4 nm | 82% | CCCC/C=C\CCCCCCCC(=O)OCCCCCCC(CCCCCCOC(=O)CCCCCCC/C=C\CCCC)OC(=O)OCCN(CC)CCN(CC)CC [Example 47, 7-(((2-((2-(Diethylamino)ethyl)(ethyl)amino)ethoxy)carbonyl)oxy)tridecane-1,13-diyl(9Z,9′Z)-bis(tetradec-9-enoate)] | 11%
6 | 65.6 nm | 79% | 13 nM | 65.4 nm | 84% | CCCCCCCCCCCCC(CCCCCCCCC(=O)OCC(CCCC)CCCCCC)OC(=O)OCCN(CC)CCN(CC)CC (stereo not drawn) [Example 50, 2-Butyloctyl 12-dodecyl-3,6-diethyl-10-oxo-9,11-dioxa-3,6-diazahenicosan-21-oate] | 11%
7 | 69 nm | 76% | 37 nM | 71 nm | 84% | CCCCC/C=C\C/C=C\CCCCCCCCC(CCCCCCCC/C=C\C/C=C\CCCCC)OC(=O)OCCN(CCN(CC)CC)Cc1ccccc1 [Example 51, 2-(Benzyl(2-(diethylamino)ethyl)amino)ethyl((6Z,9Z,28Z,31Z)-heptatriaconta-6,9,28,31-tetraen-19-yl)carbonate] | 19%
8 | 79.9 nm | 80% | 27 nM | 73.1 nm | 83% | CCCCC/C=C\C/C=C\CCCCCCCCC(CCCCCCCC/C=C\C/C=C\CCCCC)OC(=O)OCCN(CCCCCCCC)CCN(C)C [Example 52, 2-((2-(Dimethylamino)ethyl)(octyl)amino)ethyl((6Z,9Z,28Z,31Z)-heptatriaconta-6,9,28,31-tetraen-19-yl)carbonate] | 19%
9 | 60.9 nm | 75% | 7 nM | 67.7 nm | 78% | CCCCCCCCCCCCC(CCCCCCCCC(=O)OCC(CCCC)CCCCCC)OC(=O)OCCN(CCN(CC)CC)C(C)C (stereo not drawn) [Example 61, 2-Butyloctyl 12-dodecyl-3-ethyl-6-isopropyl-10-oxo-9,11-dioxa-3,6-diazahenicosan-21-oate] | 8%
10 | 61.5 nm | 75% | 5 nM | 65.7 nm | 86% | CCCCC/C=C\C/C=C\CCCCCCCCC(CCCCCCCC/C=C\C/C=C\CCCCC)OC(=O)OCCN(CCC)CCN(C)C(C)C [Example 64] | 10%
11 | 69.8 nm | 73% | 28 nM | 85.4 nm | 98% | CCCCCCCCCCC(CCCCCCCCCCC(=O)OCC(CCCC)CCCCCC)OC(=O)OCCN(CC)CCN(CC)CC (stereo not drawn) [Example 66, 2-Butyloctyl 12-decyl-3,6-diethyl-10-oxo-9,11-dioxa-3,6-diazatricosan-23-oate] | 17%
12 | 70.7 nm | 97% | 37 nM | 84.5 nm | 91% | CCCCCCCCCCC(CCCCCCCCC(=O)OCC(CCCC)CCCCCC)OC(=O)OCCN(CC)CCN(CC)CC (stereo not drawn) [Example 68, 2-Butyloctyl 12-decyl-3,6-diethyl-10-oxo-9,11-dioxa-3,6-diazahenicosan-21-oate] | 9%
13 | 67.6 nm | 98% | 28 nM | 86.8 nm | 97% | CCCCCCCCCCC(CCCCCCCCC(=O)OCC(CCCC)CCCCCC)OC(=O)OCCN(CCN(CC)CC)C(C)C (stereo not drawn) [Example 69, 2-Butyloctyl 12-decyl-3-ethyl-6-isopropyl-10-oxo-9,11-dioxa-3,6-diazahenicosan-21-oate] | 6%
